From US20260184710A1, “CASITAS B-LINEAGE LYMPHOMA PROTOONCOGENE B (CBL-B) DEGRADING COMPOUNDS AND ASSOCIATED METHODS OF USE” (Arvinas Operations, Inc., priority 2022, published 2026)

Biological target: T1, Cbl-b (Homo sapiens, UniProt Q13191)
T1 construct: Cbl-b-HiBit KI Jurkat Cells were purchased from Promega; host or cells: Cbl-b-HiBiT knock-in Jurkat cells
Assay: Cbl-b Degradation Method B (Nano-Glo HiBiT lytic detection)
Assay type: cell-based
Conditions: Cbl-b-HiBit KI Jurkat Cells, incubated at least 6-24 hours; for DC50: half maximal degradation, read-out: Cbl-b Degredation Method B IC50; for Dmax: maximum degradation observed, read-out: Cbl-b Degredation Method B Dmax (%)
In short: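 Cbl-b-HiBiT knock-in Jurkat cells (20,000/well) were treated after ~24 h plating with an 11-point 1:3 series for 6-24 h at 37° C. Remaining Cbl-b measured by Nano-Glo HiBiT lytic luminescence. DC50 and Dmax expressed as % of control.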

T1 sequence (Q13191 whole entry): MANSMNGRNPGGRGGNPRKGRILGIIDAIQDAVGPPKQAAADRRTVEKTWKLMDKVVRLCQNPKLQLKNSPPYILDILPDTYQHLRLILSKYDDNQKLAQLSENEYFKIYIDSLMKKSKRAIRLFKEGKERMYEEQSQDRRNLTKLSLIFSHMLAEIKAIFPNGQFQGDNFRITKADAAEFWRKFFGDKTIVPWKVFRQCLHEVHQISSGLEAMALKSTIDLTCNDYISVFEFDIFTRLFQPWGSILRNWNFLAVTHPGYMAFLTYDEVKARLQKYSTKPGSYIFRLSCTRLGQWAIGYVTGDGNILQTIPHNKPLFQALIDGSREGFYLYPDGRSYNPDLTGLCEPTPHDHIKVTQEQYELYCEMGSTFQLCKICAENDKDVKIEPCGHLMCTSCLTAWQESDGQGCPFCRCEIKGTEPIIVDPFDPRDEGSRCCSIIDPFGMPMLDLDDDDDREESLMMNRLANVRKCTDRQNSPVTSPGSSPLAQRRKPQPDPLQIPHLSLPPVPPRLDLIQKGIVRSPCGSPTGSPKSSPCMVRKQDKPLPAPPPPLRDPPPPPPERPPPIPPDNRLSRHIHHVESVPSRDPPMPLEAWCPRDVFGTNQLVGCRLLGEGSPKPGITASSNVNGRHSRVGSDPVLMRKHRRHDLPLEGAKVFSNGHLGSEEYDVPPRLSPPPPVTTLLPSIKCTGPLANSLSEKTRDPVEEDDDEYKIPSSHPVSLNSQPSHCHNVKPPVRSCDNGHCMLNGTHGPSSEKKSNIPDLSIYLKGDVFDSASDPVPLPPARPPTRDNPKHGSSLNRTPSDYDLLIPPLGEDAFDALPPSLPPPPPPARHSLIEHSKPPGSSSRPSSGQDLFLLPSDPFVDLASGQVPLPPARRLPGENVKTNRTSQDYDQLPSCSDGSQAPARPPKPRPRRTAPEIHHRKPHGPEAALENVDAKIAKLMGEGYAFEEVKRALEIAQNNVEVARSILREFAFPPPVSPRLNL

| Compound | DC50 [nM] | Dmax [%] |
| --- | --- | --- |
| CC(C)n1c(=O)n(C2CCC(=O)NC2=O)c2ccc(N3CCC(O[C@H]4CC[C@@H](CN5CCN(C[C@H]6CCCN(Cc7cc(C(F)(F)F)c8cn(-c9cccc(C%10(Cc%11nncn%11C)COC%10)c9)nc8c7)C6)CC5)CC4)CC3)cc21 (stereo partly drawn) [Example 268, 3-[2-oxo-3-(propan-2-yl)-5-(4-{[(1r,4r)-4-[(4-{[(3S)-1-{[2-(3-{3-[(4-methyl-4H-1,2,4-triazol-3-yl)methyl]oxetan-3-yl}phenyl)-4-(trifluoromethyl)-2H-indazol-6-yl]methyl}piperidin-3-yl]methyl}piperazin-1-yl)methyl]cyclohexyl]oxy}piperidin-1-yl)-2,3-dihydro-1H-1,3-benzodiazol-1-yl]piperidine-2,6-dione] | < 5 | > 70 |
| Cn1cnnc1CC1(c2cccc(-n3cc4c(C(F)(F)F)cc(CN5CCC[C@H](CN6CCN(C[C@H]7CC[C@@H](OC8CCN(c9ccc%10c(c9F)CN(C9CCC(=O)NC9=O)C%10=O)CC8)CC7)CC6(C)C)C5)cc4n3)c2)COC1 (stereo partly drawn) [Example 267, 3-[4-fluoro-1-oxo-5-(4-{[(1r,4r)-4-[(3,3-dimethyl-4-{[(3S)-1-{[2-(3-{3-[(4-methyl-4H-1,2,4-triazol-3-yl)methyl]oxetan-3-yl}phenyl)-4-(trifluoromethyl)-2H-indazol-6-yl]methyl}piperidin-3-yl]methyl}piperazin-1-yl)methyl]cyclohexyl]oxy}piperidin-1-yl)-2,3-dihydro-1H-isoindol-2-yl]piperidine-2,6-dione] | < 5 | > 70 |
| Cn1cnnc1CC1(c2cccc(N3Cc4c(cc(CN5CCC[C@H](CN6CC[C@@H](OC7CCN(c8ccc9c(c8F)CN(C8CCC(=O)NC8=O)C9=O)CC7)CC6(C)C)C5)cc4C(F)(F)F)C3=O)c2)CC(C#N)C1 (single isomer, unassigned) [Example 290, (1r**,3r**)-3-[3-(6-{[(3S)-3-{[(4R*)-4-({1-[2-(2,6-dioxopiperidin-3-yl)-4-fluoro-1-oxo-2,3-dihydro-1H-isoindol-5-yl]piperidin-4-yl}oxy)-2,2-dimethylpiperidin-1-yl]methyl}piperidin-1-yl]methyl}-1-oxo-4-(trifluoromethyl)-2,3-dihydro-1H-isoindol-2-yl)phenyl]-3-[(4-methyl-4H-1,2,4-triazol-3-yl)methyl]cyclobutane-1-carbonitrile] | > 500 |  |
| Cn1cnnc1CC1(c2cccc(N3Cc4c(cc(CN5CC6(C5)CN(CC5CCN(c7cccc8c7C(=O)N(C7CCC(=O)NC7=O)C8=O)CC5)C6)cc4C(F)(F)F)C3=O)c2)COC1 (centres unmarked) [Example 69, 2-(2,6-dioxopiperidin-3-yl)-4-{4-[(6-{[2-(3-{3-[(4-methyl-4H-1,2,4-triazol-3-yl)methyl]oxetan-3-yl}phenyl)-3-oxo-7-(trifluoromethyl)-2,3-dihydro-1H-isoindol-5-yl]methyl}-2,6-diazaspiro[3.3]heptan-2-yl)methyl]piperidin-1-yl}-2,3-dihydro-1H-isoindole-1,3-dione] | > 500 |  |
| Cn1cnnc1CC1(c2cccc(N3Cc4c(cc(CN5CCC(CCN6CCN(c7ccc8c(c7)C(=O)N(C7CCC(=O)NC7=O)C8=O)CC6)CC5)cc4C(F)(F)F)C3=O)c2)COC1 (centres unmarked) [Example 39, 2-(2,6-dioxopiperidin-3-yl)-5-{4-[2-(1-{[2-(3-{3-[(4-methyl-4H-1,2,4-triazol-3-yl)methyl]oxetan-3-yl}phenyl)-3-oxo-7-(trifluoromethyl)-2,3-dihydro-1H-isoindol-5-yl]methyl}piperidin-4-yl)ethyl]piperazin-1-yl}-2,3-dihydro-1H-isoindole-1,3-dione] | > 500 |  |
| Cn1cnnc1CC1(c2cccc(-n3cc4c(C(F)(F)F)cc(CN5CCC[C@H](CN6CCC[C@@H](CN7CCN(c8ccc9c(c8F)CN(C8CCC(=O)NC8=O)C9=O)CC7)C6)C5)cc4n3)c2)COC1 (stereo partly drawn) [Example 257, 3-[4-fluoro-5-(4-{[(3R)-1-{[(3R)-1-{[2-(3-{3-[(4-methyl-4H-1,2,4-triazol-3-yl)methyl]oxetan-3-yl}phenyl)-4-(trifluoromethyl)-2H-indazol-6-yl]methyl}piperidin-3-yl]methyl}piperidin-3-yl]methyl}piperazin-1-yl)-1-oxo-2,3-dihydro-1H-isoindol-2-yl]piperidine-2,6-dione] | > 500 |  |
| Cn1cnnc1CC1(c2cccc(N3Cc4c(cc(CN5CCN(CC6CCN(c7ccc(F)c(C(=O)NC8CCC(=O)NC8=O)c7)CC6)CC5)cc4C(F)(F)F)C3=O)c2)COC1 (centres unmarked) [Example 54, N-(2,6-dioxopiperidin-3-yl)-2-fluoro-5-{4-[(4-{[2-(3-{3-[(4-methyl-4H-1,2,4-triazol-3-yl)methyl]oxetan-3-yl}phenyl)-3-oxo-7-(trifluoromethyl)-2,3-dihydro-1H-isoindol-5-yl]methyl}piperazin-1-yl)methyl]piperidin-1-yl}benzamide] | > 500 |  |
| CC1c2nc(N3CCC(O[C@H]4CC[C@H](CN5CCN(Cc6cc(C(F)(F)F)c7cn(-c8cccc(C9(Cc%10nncn%10C)COC9)c8)nc7c6)CC5)CC4)CC3)ccc2C(=O)N1C1CCC(=O)NC1=O (some centres unmarked) [Example 216, 3-[7-methyl-5-oxo-2-(4-{[(1r,4r)-4-[(4-{[2-(3-{3-[(4-methyl-4H-1,2,4-triazol-3-yl)methyl]oxetan-3-yl}phenyl)-4-(trifluoromethyl)-2H-indazol-6-yl]methyl}piperazin-1-yl)methyl]cyclohexyl]oxy}piperidin-1-yl)-5H,6H,7H-pyrrolo[3,4-b]pyridin-6-yl]piperidine-2,6-dione] | < 5 | < 35 |
| Cn1cnnc1CC1(c2cccc(N3Cc4c(cc(CN5CCN(c6ccc(C(=O)NC7CCC(=O)NC7=O)c(F)c6)CC5)cc4C(F)(F)F)C3=O)c2)COC1 (centres unmarked) [Example 35, N-(2,6-dioxopiperidin-3-yl)-2-fluoro-4-(4-{[2-(3-{3-[(4-methyl-4H-1,2,4-triazol-3-yl)methyl]oxetan-3-yl}phenyl)-3-oxo-7-(trifluoromethyl)-2,3-dihydro-1H-isoindol-5-yl]methyl}piperazin-1-yl)benzamide] | > 500 |  |

The next lines start with the values.

| DC50 [nM] | Dmax [%] | Compound |
| --- | --- | --- |
| < 5 | > 70 | Cn1cnnc1C[C@]1(c2cccc(N3Cc4c(cc(CN5CCN(C[C@H]6CC[C@H](OC7CCN(c8cccc9c8n(C)c(=O)n9C8CCC(=O)NC8=O)CC7)CC6)CC5(C)C)cc4C(F)(F)F)C3=O)c2)C[C@H](C#N)C1 (some centres unmarked) [Example 274, (1r,3r)-3-(3-{6-[(2,2-dimethyl-4-{[(1r,4r)-4-({1-[1-(2,6-dioxopiperidin-3-yl)-3-methyl-2-oxo-2,3-dihydro-1H-1,3-benzodiazol-4-yl]piperidin-4-yl}oxy)cyclohexyl]methyl}piperazin-1-yl)methyl]-1-oxo-4-(trifluoromethyl)-2,3-dihydro-1H-isoindol-2-yl}phenyl)-3-[(4-methyl-4H-1,2,4-triazol-3-yl)methyl]cyclobutane-1-carbonitrile] |
| > 500 |  | CC(C)n1c(=O)n(C2CCC(=O)NC2=O)c2ccc(N3CCN(Cc4ccc(-c5cc6c(c(C(F)(F)F)c5)CN(c5cccc([C@]7(Cc8nncn8C)C[C@@H](C#N)C7)c5)C6=O)cc4)CC3)cc21 (some centres unmarked) [Example 295, (1r,3r)-3-(3-{6-[4-({4-[1-(2,6-dioxopiperidin-3-yl)-2-oxo-3-(propan-2-yl)-2,3-dihydro-1H-1,3-benzodiazol-5-yl]piperazin-1-yl}methyl)phenyl]-1-oxo-4-(trifluoromethyl)-2,3-dihydro-1H-isoindol-2-yl}phenyl)-3-[(4-methyl-4H-1,2,4-triazol-3-yl)methyl]cyclobutane-1-carbonitrile] |
| > 500 |  | C[C@@H]1c2nc(N3CCC(O[C@H]4CC[C@H](CN5CCN(Cc6cc7c(c(C(F)(F)F)c6)CN(c6cccc(C8(Cc9nncn9C)CC(C#N)C8)c6)C7=O)CC5(C)C)CC4)CC3)ccc2C(=O)N1C1CCC(=O)NC1=O (single isomer, unassigned) [Example 313, (1r***,3r***)-3-(3-{6-[(3,3-dimethyl-4-{[(1r**,4r**)-4-({1-[(7R*)-6-(2,6-dioxopiperidin-3-yl)-7-methyl-5-oxo-5H,6H,7H-pyrrolo[3,4-b]pyridin-2-yl]piperidin-4-yl}oxy)cyclohexyl]methyl}piperazin-1-yl)methyl]-1-oxo-4-(trifluoromethyl)-2,3-dihydro-1H-isoindol-2-yl}phenyl)-3-[(4-methyl-4H-1,2,4-triazol-3-yl)methyl]cyclobutane-1-carbonitrile] |
| 5 to 50 | > 70 | Cc1cc(N2CCC(O[C@H]3CC[C@H](CN4CCN(Cc5cc6c(c(C(F)(F)F)c5)CN(c5cccc(C7(Cc8nncn8C)CC(C#N)C7)c5)C6=O)C(C)(C)C4)CC3)CC2)c(F)c2c1C(=O)N(C1CCC(=O)NC1=O)C2 (some centres unmarked) [Example 251, (1r**,3r**)-3-(3-{6-[(2,2-dimethyl-4-{[(1r*,4r*)-4-({1-[2-(2,6-dioxopiperidin-3-yl)-4-fluoro-7-methyl-1-oxo-2,3-dihydro-1H-isoindol-5-yl]piperidin-4-yl}oxy)cyclohexyl]methyl}piperazin-1-yl)methyl]-1-oxo-4-(trifluoromethyl)-2,3-dihydro-1H-isoindol-2-yl}phenyl)-3-[(4-methyl-4H-1,2,4-triazol-3-yl)methyl]cyclobutane-1-carbonitrile] |
| < 5 | > 70 | CC1CN(C[C@H]2CC[C@H](OC3CCN(c4ccc5c(c4)n(C(C)C)c(=O)n5C4CCC(=O)NC4=O)CC3)CC2)CCN1Cc1cc2c(c(C(F)(F)F)c1)CN(c1cccc(C3(Cc4nncn4C)CC(C#N)C3)c1)C2=O (some centres unmarked) [Example 245, (1r**,3r**)-3-(3-{6-[(2-methyl-4-{[(1r*,4r*)-4-({1-[1-(2,6-dioxopiperidin-3-yl)-2-oxo-3-(propan-2-yl)-2,3-dihydro-1H-1,3-benzodiazol-5-yl]piperidin-4-yl}oxy)cyclohexyl]methyl}piperazin-1-yl)methyl]-1-oxo-4-(trifluoromethyl)-2,3-dihydro-1H-isoindol-2-yl}phenyl)-3-[(4-methyl-4H-1,2,4-triazol-3-yl)methyl]cyclobutane-1-carbonitrile] |
